# Assay results from ChEMBL document CHEMBL4251694 (ACS Med Chem Lett, 2018).
# Activity calls are given as the source filed them. The calls are words filed in the database; no cut-off is given here.
# How the values were obtained:
# Influenza A virus [1] = experiment: Antiviral activity against Influenza A virus A/Udorn/72 H3N2 infected in MDCK cells assessed as reduction in plaque formation by crystal violet staining based assay; format: functional, organism-based; details: Influenza A virus (A/udorn/1972(H3N2))
# Influenza A virus [2] = experiment: Antiviral activity against Influenza A virus A/Udorn/72 H3N2 infected in MDCK cells assessed as reduction in virus-induced cytopathic effect by crystal violet staining based light-microscopic analysis; format: functional, organism-based, Influenza A virus (A/udorn/1972(H3N2))
# Influenza A virus [3] = experiment: Antiviral activity against Influenza A virus A/WSN/33 H1N1 infected in MDCK cells assessed as reduction in virus-induced cytopathic effect by crystal violet staining based light-microscopic analysis; format: functional, organism-based; details: A/WSN/1933(H1N1)
# [4] = Cytotoxicity against MDCK cells after 72 hrs by crystal violet staining based spectrophotometric method; format: cell-based, Canis lupus familiaris; details: dog
# [5] = target: Matrix protein 2 (Influenza A virus (A/Udorn/307/1972(H3N2)), UniProt P0DOF8); experiment: Binding affinity to Influenza A virus A/Udorn/72 wild-type M2 proton channel expressed in Xenopus laevis oocytes at pH 5.5 by two-electrode voltage clamp assay; format: cell-based, Influenza A virus (A/udorn/1972(H3N2))
# Sequence of Matrix protein 2 (Influenza A virus (A/Udorn/307/1972(H3N2)), UniProt P0DOF8) (P0DOF8 whole entry): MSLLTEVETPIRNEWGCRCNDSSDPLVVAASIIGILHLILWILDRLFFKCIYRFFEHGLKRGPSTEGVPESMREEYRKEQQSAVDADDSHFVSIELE
# Influenza A virus [6] = experiment: Antiviral activity against Influenza A virus (A/Hong Kong/68(H3N2)) infected in MDCK cells assessed as reduction in virus-induced cytopathic effect by crystal violet staining based light-microscopic analysis; format: functional, organism-based
# Influenza A virus [7] = experiment: Antiviral activity against Influenza A virus A/Udorn/72 H3N2 infected in MDCK cells assessed as reduction in plaque size by crystal violet staining based assay; format: functional, organism-based; details: Influenza A virus (A/udorn/1972(H3N2))
# [8] = target: Matrix protein 2 (Influenza A virus (A/Udorn/307/1972(H3N2)), UniProt P0DOF8); experiment: Binding affinity to Influenza A virus A/Udorn/72 wild-type M2 proton channel by isothermal calorimetric titration; set-up: species or system Influenza A virus (A/udorn/1972(H3N2))
# [9] = target: Matrix protein 2 (Influenza A virus (A/Udorn/307/1972(H3N2)), UniProt P0DOF8); experiment: Inhibition of Influenza A virus A/Udorn/72 wild-type M2 proton channel expressed in Xenopus laevis oocytes assessed as blockade of inward currents at pH 5.5 after 5 mins by two-electrode voltage clamp assay; format: cell-based, Influenza A virus (A/udorn/1972(H3N2))
# [10] = target: Matrix protein 2 (Influenza A virus (A/Udorn/307/1972(H3N2)), UniProt P0DOF8); experiment: Inhibition of Influenza A virus A/Udorn/72 wild-type M2 proton channel expressed in Xenopus laevis oocytes assessed as blockade of inward currents at pH 5.5 after 2 mins by two-electrode voltage clamp assay; format: cell-based, Influenza A virus (A/udorn/1972(H3N2))
Structure (SMILES),Activity (Influenza A virus [1]),EC50 (Influenza A virus [2]),EC50 (Influenza A virus [3]),CC50 at 72 h [4],Kd [5],EC50 (Influenza A virus [6]),Activity (Influenza A virus [7]),Kd [8],IC50 [9],IC50 [10]
CCCC(N)(CCC)C12CC3CC(CC(C3)C1)C2,inactive,1.07 µM,> 100 µM,57.3 µM,88 µM,0.45 µM,Active,3.43 µM,–,–
C[C@@H](N)C12CC3CC(CC(C3)C1)C2,Active,0.05 µM,> 100 µM,> 100 µM,–,–,–,–,–,–
CC(N)C12CC3CC(CC(C3)C1)C2 (stereo unspecified) [RIMANTADINE],Active,0.09 µM,> 100 µM,> 100 µM,–,0.05 µM,–,–,–,–
CCOC(=O)C1=C[C@@H](OC(CC)CC)[C@H](NC(C)=O)[C@@H](N)C1 [OSELTAMIVIR],–,0.001 µM,0.03 µM,> 100 µM,–,0.002 µM,–,–,–,–
NC12CC3CC(CC(C3)C1)C2 [AMANTADINE],Active,0.78 µM,> 100 µM,> 100 µM,–,–,–,–,–,–
C[C@H](N)C12CC3CC(CC(C3)C1)C2,Active,0.06 µM,> 100 µM,> 100 µM,–,–,–,–,–,–
CC(C)(N)C12CC3CC(CC(C3)C1)C2,Active,0.01 µM,> 100 µM,> 100 µM,13 µM,0.012 µM,–,0.13 µM,4 µM,9.3 µM
CCC(N)(CC)C12CC3CC(CC(C3)C1)C2,Active,0.41 µM,> 100 µM,> 100 µM,–,0.46 µM,–,4.59 µM,13.2 µM,24.3 µM
